pIC50: −log10 of the molar value.
Key:
MCF7 = experiment: cells; conditions: Homo sapiens
Description: Anticancer activity against human MCF7 cells assessed as reduction in cell viability by MTT assay

WI-38 = experiment: Cytotoxicity against human WI-38 cells assessed as reduction in cell viability by MTT assay; type: cell-based; conditions: for pIC50: Homo sapiens, WI-38; for EC100: human, wi-38
HepG2 = experiment: Anticancer activity against human HepG2 cells assessed as reduction in cell viability by MTT assay; type: functional, cell-based
[1] = Anticancer activity against […] cells assessed as reduction in cell viability by MTT assay; type: functional, cell-based; conditions: Mus musculus
in vitro = conditions: human, WI38 cells and HepG2 cells
Description: Selectivity index, ratio of IC50 for human WI38 cells to IC50 for human HepG2 cells

[2] = target: 72 kDa type IV collagenase (Homo sapiens, UniProt P08253); experiment: Inhibition of MMP-2 (unknown origin) by colorimetric assay
Chain of 72 kDa type IV collagenase (P08253 whole entry): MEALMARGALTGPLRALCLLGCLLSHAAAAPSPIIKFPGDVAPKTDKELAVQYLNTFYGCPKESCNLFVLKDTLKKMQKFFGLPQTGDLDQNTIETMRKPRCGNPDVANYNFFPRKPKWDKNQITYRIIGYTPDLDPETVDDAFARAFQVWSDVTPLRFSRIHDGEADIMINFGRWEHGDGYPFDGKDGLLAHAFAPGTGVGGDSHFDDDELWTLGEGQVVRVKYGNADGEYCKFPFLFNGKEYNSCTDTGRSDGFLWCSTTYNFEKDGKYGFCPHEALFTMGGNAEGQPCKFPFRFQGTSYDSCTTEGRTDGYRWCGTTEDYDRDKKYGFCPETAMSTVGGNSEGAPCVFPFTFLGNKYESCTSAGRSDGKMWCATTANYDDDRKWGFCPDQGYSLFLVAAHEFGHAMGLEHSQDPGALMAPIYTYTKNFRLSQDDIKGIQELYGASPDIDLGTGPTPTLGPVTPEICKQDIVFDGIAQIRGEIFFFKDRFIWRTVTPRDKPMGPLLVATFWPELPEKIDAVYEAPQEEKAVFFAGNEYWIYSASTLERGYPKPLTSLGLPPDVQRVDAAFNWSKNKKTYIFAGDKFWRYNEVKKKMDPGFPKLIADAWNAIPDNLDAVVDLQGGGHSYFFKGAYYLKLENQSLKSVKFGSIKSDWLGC

Collagenase 3 = Collagenase 3 (Homo sapiens, UniProt P45452); experiment: Inhibition of MMP-13 (unknown origin) by colorimetric assay
[3] = target: Matrix metalloproteinase-9 (Homo sapiens, UniProt P14780); experiment: Inhibition of MMP-9 (unknown origin) by colorimetric assay
Chain of Matrix metalloproteinase-9 (P14780 whole entry): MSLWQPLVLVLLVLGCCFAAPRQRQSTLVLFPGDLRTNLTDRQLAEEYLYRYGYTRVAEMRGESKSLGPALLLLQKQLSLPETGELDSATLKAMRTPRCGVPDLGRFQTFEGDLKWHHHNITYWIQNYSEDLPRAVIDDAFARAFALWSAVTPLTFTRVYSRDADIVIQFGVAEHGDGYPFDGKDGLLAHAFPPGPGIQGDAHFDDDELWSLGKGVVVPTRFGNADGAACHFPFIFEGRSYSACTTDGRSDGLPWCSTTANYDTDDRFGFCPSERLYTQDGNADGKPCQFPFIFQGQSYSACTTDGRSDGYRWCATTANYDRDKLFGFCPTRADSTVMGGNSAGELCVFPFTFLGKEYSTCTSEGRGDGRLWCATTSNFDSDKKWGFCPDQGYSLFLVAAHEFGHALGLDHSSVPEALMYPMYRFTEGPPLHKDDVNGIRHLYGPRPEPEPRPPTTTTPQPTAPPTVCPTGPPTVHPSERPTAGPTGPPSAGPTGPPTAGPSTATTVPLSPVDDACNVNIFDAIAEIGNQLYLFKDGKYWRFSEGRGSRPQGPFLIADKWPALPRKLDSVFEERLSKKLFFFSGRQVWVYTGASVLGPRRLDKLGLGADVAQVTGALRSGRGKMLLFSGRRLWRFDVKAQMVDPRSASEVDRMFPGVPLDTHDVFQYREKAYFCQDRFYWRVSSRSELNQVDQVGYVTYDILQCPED

| pIC50 (MCF7) | pIC50 (HepG2) | pIC50 [2] | pIC50 (Collagenase 3) | pIC50 [3] | Structure (SMILES) | pIC50 (WI-38) | EC100 (WI-38) [nM] | pIC50 [1] | selectivity ratio (in vitro) |
| --- | --- | --- | --- | --- | --- | --- | --- | --- | --- |
| 6.78 | 6.90 |  |  |  | O=C(Nc1ccc([N+](=O)[O-])cc1)C(c1ccccc1)N(C(=O)CCC(=O)N(c1ccccc1)C(C(=O)Nc1ccc([N+](=O)[O-])cc1)c1ccccc1)c1ccccc1 (configuration not stated) | 6.71 | 141.4 | 6.86 | 1.56 |
| 7.25 | 6.97 |  |  |  | O=CN(c1ccccc1)C(C(=O)Nc1ccc([N+](=O)[O-])cc1)c1ccccc1 (configuration not stated) | 6.27 | 161.5 | 7.03 | 5.09 |
| 6.76 | 6.80 |  |  |  | O=C(Nc1ccc([N+](=O)[O-])cc1)C(c1ccc([N+](=O)[O-])cc1)N(C(=O)c1ccccc1[N+](=O)[O-])c1ccccc1 (configuration not stated) | 6.68 | 158.3 | 6.79 | 1.32 |
| 6.73 | 6.36 |  |  |  | O=C(Nc1ccc([N+](=O)[O-])cc1)C(c1ccccc1[N+](=O)[O-])N(C(=O)c1ccccc1[N+](=O)[O-])c1ccccc1 (configuration not stated) | 6.44 | 198.9 | 6.68 | 0.828 |
| 6.98 | 7.13 |  |  |  | Cc1ccc(N(C(=O)c2ccc([N+](=O)[O-])cc2)C(C(=O)Nc2ccc([N+](=O)[O-])cc2)c2ccccc2)cc1 (configuration not stated) | 6.74 | 113.6 | 7.03 | 2.44 |
| 6.91 | 6.95 |  |  |  | Cc1ccc(N(C(=O)c2ccc(Br)cc2)C(C(=O)Nc2ccc([N+](=O)[O-])cc2)c2ccccc2)cc1 (configuration not stated) | 6.58 | 36.1 | 6.92 | 2.34 |
| 7.19 | 7.29 |  |  |  | Cc1ccc(N(C(=O)c2ccc(Cl)cc2)C(C(=O)Nc2ccc([N+](=O)[O-])cc2)c2ccccc2)cc1 (configuration not stated) | 7.37 | 18.25 | 7.27 | 0.842 |
| 7.57 | 7.67 |  |  |  | O=C(Nc1ccc([N+](=O)[O-])cc1)C(c1ccccc1)N(C(=O)c1ccc([N+](=O)[O-])cc1)c1ccccc1 (configuration not stated) | 5.92 | 469.8 | 7.92 | 56.7 |
| 7.07 | 7.12 |  |  |  | O=C(Nc1ccc([N+](=O)[O-])cc1)C(c1ccc(Br)cc1)N(C(=O)c1ccccc1[N+](=O)[O-])c1ccccc1 (configuration not stated) | 6.63 | 12.7 | 7.09 | 3.06 |
| 6.51 | 6.75 |  |  |  | CC(=O)N(c1ccccc1)C(C(=O)Nc1ccc([N+](=O)[O-])cc1)c1ccccc1 (configuration not stated) | 6.29 | 301 | 6.54 | 2.83 |
| 7.92 | 8.10 |  |  |  | O=C(Nc1ccc([N+](=O)[O-])cc1)C(c1ccccc1)N(C(=O)c1ccc(C(F)(F)F)cc1)c1ccccc1 (configuration not stated) | 7.34 | 26.9 | 7.94 | 5.75 |
| 7.96 | 7.51 |  |  |  | O=C(Nc1ccc([N+](=O)[O-])cc1)C(c1ccccc1)N(C(=O)C(Cl)(Cl)Cl)c1ccccc1 (configuration not stated) | 5.34 | 1912 | 7.64 | 148 |
| 6.74 | 6.75 |  |  |  | O=C(Nc1ccc([N+](=O)[O-])cc1)C(c1ccccc1)N(C(=O)c1ccccc1[N+](=O)[O-])c1ccc(I)cc1 (configuration not stated) | 6.50 | 188.3 | 6.74 | 1.77 |
| 7.83 | 7.16 |  |  |  | O=C(Nc1ccc([N+](=O)[O-])cc1)C(c1ccccc1[N+](=O)[O-])N(C(=O)C(F)(F)F)c1ccccc1 (configuration not stated) | 6.46 | 112.4 | 7.28 | 5.06 |
| 8.10 | 8.03 |  |  |  | Cc1ccc(N(C(=O)c2ccc(C(F)(F)F)cc2)C(C(=O)Nc2ccc([N+](=O)[O-])cc2)c2ccccc2)cc1 (configuration not stated) | 7.54 | 14.9 | 7.99 | 3.04 |
| 6.78 | 6.82 |  |  |  | NCC(=O)N(c1ccccc1)C(C(=O)Nc1ccc([N+](=O)[O-])cc1)c1ccccc1 (configuration not stated) | 6.66 | 84.9 | 6.77 | 1.44 |
| 6.77 | 6.86 |  |  |  | O=C(Nc1ccc([N+](=O)[O-])cc1)C(c1ccccc1)N(C(=O)c1ccccc1[N+](=O)[O-])c1cccc(Br)c1 (configuration not stated) | 6.70 | 89.7 | 6.81 | 1.44 |
| 6.53 | 6.81 |  |  |  | Cc1ccc(N(C(=O)c2ccccc2[N+](=O)[O-])C(C(=O)Nc2ccc([N+](=O)[O-])cc2)c2ccccc2)cc1 (configuration not stated) | 6.30 | 305.4 | 6.74 | 3.25 |
| 6.69 | 6.73 |  |  |  | O=C(Nc1ccc([N+](=O)[O-])cc1)C(c1ccc([N+](=O)[O-])cc1)N(C(=O)c1ccc([N+](=O)[O-])cc1)c1ccccc1 (configuration not stated) | 6.84 | 82.4 | 6.72 | 0.768 |
| 7.89 | 7.71 |  |  |  | O=C(Nc1ccc([N+](=O)[O-])cc1)C(c1ccccc1)N(C(=O)/C=C/c1ccccc1)c1ccccc1 (configuration not stated) | 7.54 | 4.8 | 7.89 | 1.49 |
| 7.74 | 7.44 |  |  |  | CC(C)(C)OC(=O)NCC(=O)N(c1ccccc1)C(C(=O)Nc1ccc([N+](=O)[O-])cc1)c1ccccc1 (configuration not stated) | 7.37 | 18.2 | 7.50 | 1.2 |
| 7.55 | 7.68 |  |  |  | O=C(Nc1ccc([N+](=O)[O-])cc1)C(c1ccccc1)N(C(=O)C(F)(F)F)c1ccccc1 (configuration not stated) | 5.84 | 540.3 | 7.62 | 70.3 |
|  |  | 7.16 | 6.88 | 7.11 | COc1ccc(S(=O)(=O)N(CC(=O)NO)CC(C)C)cc1 |  |  |  |  |
| 7.58 | 7.75 |  |  |  | O=C(Nc1ccc([N+](=O)[O-])cc1)C(c1ccccc1)N(C(=O)Cc1ccccc1)c1ccccc1 (configuration not stated) | 6.09 | 290.7 | 7.75 | 46 |
| 7.48 | 7.38 |  |  |  | O=C(Nc1ccc([N+](=O)[O-])cc1)C(c1ccccc1)N(C(=O)c1ccccc1[N+](=O)[O-])c1ccccc1 (configuration not stated) | 6.37 | 130.2 | 7.53 | 10.1 |

Source: ChEMBL document CHEMBL4680119, “Battle tactics against MMP-9; discovery of novel non-hydroxamate MMP-9 inhibitors endowed with PI3K/AKT signaling attenuation and caspase 3/7 activation via Ugi bis-amide synthesis” (Eur J Med Chem, 2020)
